Calls of active or inactive are those of the source. The rule behind the calls is not given here.
Key:
PC-3 = assay: Cytotoxicity against human PC3 cells after 24 hrs by MTT assay; type: functional, cell-based; settings: PC-3, 24 h
DU-145 = assay: Cytotoxicity against human DU145 cells after 24 hrs by MTT assay; type: functional, cell-based; settings: DU-145, 24 h
LNCaP = assay: Cytotoxicity against human LNCAP cells after 24 hrs by MTT assay; type: functional, cell-based
K562 [1] = assay: Induction of ROS production in human K562 cells at 10 uM after 3 hrs by DCF fluorescence analysis; type: functional, cell-based
K562 [2] = assay: Cytotoxicity against human K562 cells after 24 hrs by MTT assay; type: functional, cell-based; settings: K562, 24 h
[3] = Drug uptake in human MCF7 cell lysosomes at 20 uM after 10 mins by […] staining-based confocal microscopic analysis; type: ADME, Lysosome; settings: mcf7, 10 min
K562 [4] = assay: Cytotoxicity against human K562 cells treated for 4 hrs followed irradiated with […] light for 1000 seconds by MTT assay; type: functional, cell-based; settings: K562, light or radiation study

SMILES	IC50 (PC-3) [µM]	IC50 (DU-145) [µM]	IC50 (LNCaP) [µM]	Activity (K562 [1])	IC50 (K562 [2]) [µM]	Drug uptake [3]	IC50 (K562 [4]) [µM]
COC1=C2c3c4c5c(c(O)cc(OC)c5c5c(OC)cc(O)c(c35)C1=O)C(=O)[C@@]1(OC)O[C@@H](C)C[C@@]41[C@H]2C(C)=O [PHAEOSPHAERIN A]	5.84	10.8	10.8				
COC1=C2c3c4c5c(c(O)cc(OC)c5c5c(OC)cc(O)c(c35)C1=O)C(=O)[C@@H](OC)[C@@]41C[C@H](C)O[C@]2(O)[C@]1(C)O [PHAEOSPHAERIN D]	9.74	20.2	24.9				
COC1=C2c3c4c5c(c(O)cc(OC)c5c5c(OC)cc(O)c(c35)C1=O)C(=O)[C@@H](OC)[C@@]41C[C@H](C)O[C@]2(C(C)=O)O1 [PHAEOSPHAERIN F]	5.45	16.7	11.8				
COC1=C2c3c4c5c(c(O)cc(OC)c5c5c(OC)cc(O)c(c35)C1=O)C(=O)[C@@H](OC)[C@]4(CC(C)O)[C@@H]2C(C)=O (some centres undefined) [PHAEOSPHAERIN C]	6.11	15.2	14.3	Active	19.5	Active	7.08
COC1=C2c3c4c5c(c(O)cc(OC)c5c5c(OC)cc(O)c(c35)C1=O)C(=O)[C@@H](OC)[C@@]41C[C@H](C)O[C@@]21C(C)=O [PHAEOSPHAERIN B]	2.42	9.54	2.67				
COC1=C2c3c4c5c(c(O)cc(OC)c5c5c(OC)cc(O)c(c35)C1=O)C(=O)[C@H](OC)[C@]41C[C@H](C)O[C@@]2(C(C)=O)O1 [PHAEOSPHAERIN E]	5.25	16.2	10.1				
COc1c2c3c4c(c(OC)c(=O)c5c(O)cc(OC)c(c6c(OC)cc(O)c(c1=O)c63)c54)[C@@H](C(C)=O)[C@@](C)(O)C2 [HYPOCRELLIN A]				Active	7.47	Active	0.55
COc1cccc2c1C(=O)c1c(O)c3c(c(O)c1C2=O)C[C@@](O)(C(=O)CO)C[C@@H]3O[C@H]1C[C@H](N)[C@H](O)[C@H](C)O1 [DOXORUBICIN]	19.5	23.5	16				

Reference: ChEMBL document CHEMBL2010742, “Phaeosphaerins A-F, cytotoxic perylenequinones from an endolichenic fungus, Phaeosphaeria sp” (J Nat Prod, 2012)
